This assay deals with T1, co-expressed N and C halves of ABCR (Homo sapiens, UniProt P78363).
T1 construct: The cDNAs coding for the N-half (amino acids 1-1325) and C-half (amino acids 1326-2273) of ABCR; made in house; host or cells: COS-1 cells, co-transfected
T1 sequence (P78363 1-1325): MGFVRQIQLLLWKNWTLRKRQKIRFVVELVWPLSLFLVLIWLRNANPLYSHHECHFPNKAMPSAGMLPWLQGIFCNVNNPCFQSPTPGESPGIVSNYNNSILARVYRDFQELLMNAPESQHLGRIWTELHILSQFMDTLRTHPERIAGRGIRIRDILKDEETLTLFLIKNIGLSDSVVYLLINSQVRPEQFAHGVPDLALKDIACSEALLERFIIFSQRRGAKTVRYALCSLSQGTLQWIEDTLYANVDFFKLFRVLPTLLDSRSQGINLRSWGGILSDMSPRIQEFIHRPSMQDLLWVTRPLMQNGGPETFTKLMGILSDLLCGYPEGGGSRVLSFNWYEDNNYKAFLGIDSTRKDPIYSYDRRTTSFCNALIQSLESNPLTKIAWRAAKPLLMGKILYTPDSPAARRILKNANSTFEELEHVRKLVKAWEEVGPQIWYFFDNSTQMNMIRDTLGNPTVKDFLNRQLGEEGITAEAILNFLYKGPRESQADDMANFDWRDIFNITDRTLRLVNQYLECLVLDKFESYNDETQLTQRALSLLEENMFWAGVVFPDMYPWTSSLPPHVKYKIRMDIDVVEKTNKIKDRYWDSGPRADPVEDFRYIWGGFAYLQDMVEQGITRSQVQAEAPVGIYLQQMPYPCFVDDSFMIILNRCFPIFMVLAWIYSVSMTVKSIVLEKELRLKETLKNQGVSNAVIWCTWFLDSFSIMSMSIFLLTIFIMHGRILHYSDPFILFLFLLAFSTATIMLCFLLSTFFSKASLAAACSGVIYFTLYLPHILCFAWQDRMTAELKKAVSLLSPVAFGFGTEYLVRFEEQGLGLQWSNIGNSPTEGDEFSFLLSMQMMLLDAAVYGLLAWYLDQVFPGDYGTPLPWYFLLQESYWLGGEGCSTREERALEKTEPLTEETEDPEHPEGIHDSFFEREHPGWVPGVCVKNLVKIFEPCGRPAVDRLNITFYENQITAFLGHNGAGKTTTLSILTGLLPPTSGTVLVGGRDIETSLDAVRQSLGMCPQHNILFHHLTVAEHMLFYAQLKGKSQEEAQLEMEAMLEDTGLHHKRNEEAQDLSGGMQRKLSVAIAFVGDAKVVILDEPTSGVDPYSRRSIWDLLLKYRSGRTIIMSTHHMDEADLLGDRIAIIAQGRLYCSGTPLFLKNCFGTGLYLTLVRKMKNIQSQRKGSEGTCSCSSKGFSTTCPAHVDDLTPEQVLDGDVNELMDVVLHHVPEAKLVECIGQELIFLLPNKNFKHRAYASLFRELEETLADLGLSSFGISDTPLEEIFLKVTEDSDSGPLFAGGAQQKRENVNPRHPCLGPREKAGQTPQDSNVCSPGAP
T1 sequence (P78363 1326-2273): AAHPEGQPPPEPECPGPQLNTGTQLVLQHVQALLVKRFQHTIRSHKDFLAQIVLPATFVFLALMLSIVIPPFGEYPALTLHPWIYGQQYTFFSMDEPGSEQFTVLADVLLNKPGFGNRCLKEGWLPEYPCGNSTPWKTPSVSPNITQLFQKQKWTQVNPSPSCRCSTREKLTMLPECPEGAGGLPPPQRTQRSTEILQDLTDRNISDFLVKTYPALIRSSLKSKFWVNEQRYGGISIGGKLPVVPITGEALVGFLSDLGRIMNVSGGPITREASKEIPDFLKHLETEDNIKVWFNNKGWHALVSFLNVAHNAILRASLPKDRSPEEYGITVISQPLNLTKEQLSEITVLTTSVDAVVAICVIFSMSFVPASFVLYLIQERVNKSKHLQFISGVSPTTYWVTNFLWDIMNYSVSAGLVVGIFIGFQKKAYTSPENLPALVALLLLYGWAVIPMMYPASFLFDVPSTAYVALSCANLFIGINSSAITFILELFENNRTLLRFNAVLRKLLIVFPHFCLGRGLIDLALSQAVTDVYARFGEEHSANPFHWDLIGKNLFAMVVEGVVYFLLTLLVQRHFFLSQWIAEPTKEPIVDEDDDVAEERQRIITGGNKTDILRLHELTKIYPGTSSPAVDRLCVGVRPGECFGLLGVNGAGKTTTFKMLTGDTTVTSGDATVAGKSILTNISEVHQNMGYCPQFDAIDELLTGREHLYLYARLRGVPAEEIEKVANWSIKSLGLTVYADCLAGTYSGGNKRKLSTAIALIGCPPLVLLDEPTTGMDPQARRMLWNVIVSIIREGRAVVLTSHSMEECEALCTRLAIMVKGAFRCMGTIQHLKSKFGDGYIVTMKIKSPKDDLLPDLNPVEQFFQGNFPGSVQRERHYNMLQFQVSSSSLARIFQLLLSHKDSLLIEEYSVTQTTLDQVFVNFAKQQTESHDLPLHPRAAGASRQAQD
The assay is described as follows: Retinal-stimulated ATPase activity of purified protein reconstituted in lipid vesicles. In kind it is biochemical. The note with it: expressed in COS-1 cells, purified on Rim 3F4 column, 50 μM [α32P]ATP. On the procedure: Membranes (from two 10 cm dishes) were solubilized in 0.5 ml of 1% Triton-X100 in Buffer A (140 mM NaCl, 20 mM Tris-HCl, pH 7.4) for 20 min on ice. For ATPase assays, the membrane preparation step was omitted and the cell suspension was solubilized directly in Buffer B (10 mg/ml soybean phospholipids, 10% glycerol, 1 mM dithiothreitol, 100 mM NaCl, 3 mM MgCl2, 50 mM NaHEPES, pH 7.4) containing 18 mM CHAPS. The supernatant after a 10 min centrifugation at 40,000 rpm (TLA100.4 rotor) was mixed with 50 μl Rim3F4 Sepharose 2B for 1 h at 4° C. The beads were washed 6 times in Buffer A containing 0.2% Triton X-100 or Buffer B containing 10 mM CHAPS and eluted with 4% SDS (for electrophoresis) or 0.2 mg/ml Rim3F4 peptide (for reconstitution and determination of ATPase activity). Purified protein (24 μl) was incubated with 6 μl of 50 mg/ml lipid (1:1 mixture of dioleoylphosphatidylethanolamine and brain polar lipid, by weight) and 3 μl n-octylglucoside for 30 min on ice. The mixture was diluted rapidly with 200 μl of Buffer C (1 mM dithiothreitol, 140 mM NaCl, 25 mM NaHEPES, pH 7.4) and passed through a 200 μl Extracti-gel column (Pierce). The flow-through containing the reconstituted protein was used for determination of ATPase activity.
ATPase activity was measured as described previously (Ahn, J., Wong, J. T., and Molday, R. S. (2000) J Biol Chem 275(27), 20399-405) using 50 μM [α^32P]ATP and thin layer chromatography. The all-trans retinal concentration was determined spectrophotometrically (λ383 nm=42.88 mM^−1 cm^−1). Protein concentration was estimated from the eluate before reconstitution by laser densitometry of Coomassie blue stained gels using bovine serum albumin as a standard. […] Direct protein measurements after reconstitution by densitometry of Western blots was about half of that in the eluate. […]
ATPase Activity of Expressed N and C Halves—The basal and retinal activated ATPase activity of full-length ABCR and the N and C halves individually or co-expressed in COS-1 cells was determined after immunoaffinity purification and reconstitution into lipid vesicles. […]

Structures are written as SMILES.

On to `CC1=C(/C=C/C(C)=C/C=C/C(C)=C/C=O)C(C)(C)CCC1` [all-trans retinal], for which the “stimulation of ATPase activity” value is recorded as 1-2 fold.

Values taken from US20060110790A1, “Expression system for large functional proteins” (priority 2002, published 2006).
